One assay deals with TNFα (Homo sapiens, UniProt P01375). The assay can be described thus: TNFα-induced apoptosis in WEHI-13VAR cell line. The class given is cell-based. The settings on record: for inhibition at 10 µM: 1 × 10^−5 M; for inhibition at 20 µM: 2 × 10^−5 M; for inhibition at 40 µM: 4 × 10^−5 M; for inhibition at 5 µM: 5 × 10^−6 M. The method, then:
Effect of compounds on TNFα-induced apoptosis was measured by a standard biological assay using WEHI-13VAR cells. These cells undergo apoptosis when they are incubated in the presence of TNFα and actinomycin D. 2×10^4 WEHI-13VAR cells were incubated in RPMI supplemented with 1% sodium pyruvate and 10% FBS, overnight at 37° C. for cell adherence. The cells were then cultured in the presence of 1 μg/ml of actimomycin D ([…]) and 0.04 nM TNFα with or without compounds at 37° C. After 16 hr to 24 hr, 50 μl of a solution of 2 mg/ml of MIT was added to each well and the plate was then incubated for 4 hr at 37° C. Only viable cells metabolize MTT to form formazan salt, which is detectable by the measurement of absorbance at 570 nm. After the incubation, the plate was inverted to remove medium and dead cells. 150 μDMSO was added to each well to stop the reaction and solubilize the formazan salt. Optical density was read on a Bio-Tek EL 800 UV microplate reader. A decrease in the optical density is direct evidence of cell apoptosis induced by TNFα. Compounds were also compared to the activity of an anti-TNFα neutralizing antibody.

In assay [1] the test system is P815 murine mastocytoma cell. The assay can be described thus: MTT cytotoxicity on P815. The format is cell-based. Conditions: Mus musculus. The method, then:
(§1) This assay was performed to determine the effect of compounds of the present invention on cell cytotoxicity. Cells were incubated in presence or absence of compounds in their respective conditioned media. After 24 hr or 72 hr incubation, 50 μl of 3-(4,5-dimethyl-2-thiazyl)-2,5-diphenyl-2H-tetrazolium bromide (MTT; 2 mg/ml) was added and further incubated for 4 hr. The supernatant was discarded and 100 μl of dimethylsulfoxide (DMSO) was added. Absorbance was read at 570 nm with a TecanSunrise ELISA plate reader. The control group consisted of cells without compounds and is referred to as 100% of viable cells. IC50 was determined using Prism software.
(§2) All compounds have weak effect on cell cytotoxicity. The predictive utility of cell based cytotoxicity assays to assess the potential in vivo anticancer activity of compounds with selected cancer cell lines is well established in the art and the use of whole cells, instead of isolated protein receptors or enzymes, provides a more reliable determination of activity. See, for example, Paull et al. (J. Nat'l Cancer Inst. 81:1088-1092, 1989); Monks et al. (J. Nat'l Cancer Inst. 83:757-766, 1991); Bandes et al. (J. Nat'l Cancer Inst. 86:770-775, 1994); and Kamate et al. (Int'l J. Cancer 100:571-579, 2002).

Assay [2] has as its system PC-3 human prostate carcinoma cell. The assay can be described thus: MTT cytotoxicity on PC-3. The class given is cell-based. How it is done: as §1, §2
The subject of assay [3] is adjuvant-induced arthritis (AIA). The assay can be described thus: Freund's adjuvant-induced arthritis (AIA) in Lewis rats. The settings on record: female Lewis rats, oral administration; FIG. 18. The class given is in vivo. How it is done: AIA was induced in female Lewis rats by the injection of lyophilized Mycobacterium butyricum suspended in mineral oil into the footpad. The development of arthritis was monitored over a 3-week period post-adjuvant injection. Inflammation peaks at day 3 following the adjuvant administration. Immune activation appears around day 10 to day 16. Compounds were orally administered from day −3 to day 21. Body weight was recorded. The arthritis index, which is a measure of inflammation (edema), redness, and stiffness of the articulations, was used to monitor the development of the disease. The degree of arthritis was determined by measuring two perpendicular diameters of the ankles in the mediolateral and dorsoventral planes using a caliper. Joint circumference in millimeters is then calculated using a geometric formula.

Assay [4] concerns LPS-induced inflammation in the rat air-pouch model. The assay can be described thus: LPS-induced inflammation in rat air-pouch model. The format is in vivo, rats. Conditions: IV, pouch exudate. From the text: LPS-induced inflammation in the rat air-pouch model is believed to mimic the pathological process occurring in joint diseases such as arthritis. This is because the connective tissues formed along the air pouch are similar to those found in chronic joint diseases. LPS-induced inflammation and chronic joint diseases share other features, including markedly elevated PGE2, neutrophil infiltration, cytokine formation, and tissue damage.
An air cavity was produced at day −6 by subcutaneous injection of 20 ml of sterile air into the intrascapular area of the back of male Lewis rats (175 to 200 g). An additional 10 ml of air was injected into the cavity at day −3 to keep the space open. At day 0, compounds were administered intravenously and one hour later lipopolysaccharide (LPS: 2.5 ml of 2 μg/ml in PBS) was injected into the pouch to produce an inflammatory reaction. […] The pouch fluid was collected. The volume of exudates was measured and the number of leukocytes present in the exudates was determined with a Coulter counter. The differential count was determined by Wright-Giemsa staining. PGE2, LTB4, MCP, and TNFα were determined in the pouch exudates by specific ELISAs.

For assay [5], the system named is oxazolone-induced delayed-type hypersensitivity (DTH). Kind of assay: Oxazolone-induced delayed-type hypersensitivity (DTH) in mice. The format is in vivo. How it is done:
Compounds were tested for their ability to treat oxazolone-induced delayed-type hypersensitivity (DTH) in mice. […] On day 0, day 1, and day 2, mice were treated by intravenous (IV) or oral (PO) administrations of the vehicle (control) or methotrexate (MTX; positive control/IV) or hydrocortisone (positive control/PO) or the compound at concentration lower than or equal to 50 mg/kg or as specified. Mice were challenged with an application of 50 μl of oxazolone on the surface of the right ear (first challenge, day 3; second challenge, day 10). Ear thickness was measured on day 4 to day 7, and on day 11 to 14. Redness and crust formation was also observed. Mice were sacrificed on day 14. TDTH (CD4) cells play an important role in regulating the intensity of the DTH response. Compounds may exert an inhibitory influence on the DTH response through its inhibition of T-cell activation and DNA, RNA, and/or protein synthesis.

Assay [6] concerns NHDF (normal human dermal fibroblast). Kind of assay: MTT cytotoxicity on NHDF. The format is cell-based. How it is done: as §1, §2
Assay [7] has as its system HUVEC (human umbilical vein endothelial cell). The assay can be described thus: MTT cytotoxicity on HUVEC. The class given is cell-based. The method, then:
as §1, §2

The mark [8] stands for this setting: 24 hr culture, read-out: IC50 of 24-hour culture P815.
Where [9] appears, read: 72 hr culture, read-out: IC50 of 72-hour culture P815.
The mark [10] stands for this setting: 24 hr culture, read-out: IC50 of 24-hour culture PC-3.
The mark [11] stands for this setting: 72 hr culture, read-out: IC50 of 72-hour culture PC-3.

Molecules are shown by their SMILES. Where two headings read alike, the source gives them in different places.

In general, inhibition refers to the change of the read-out against control, counted positive when it falls. The IC50 is the concentration that inhibits the measured activity by half.

TNFα, sequence (P01375 77-233 limits assumed, species assumed): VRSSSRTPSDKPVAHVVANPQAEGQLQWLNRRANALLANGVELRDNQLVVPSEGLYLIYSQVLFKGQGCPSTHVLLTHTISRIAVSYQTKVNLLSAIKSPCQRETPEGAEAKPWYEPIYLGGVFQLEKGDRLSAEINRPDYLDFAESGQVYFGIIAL

Turning to `NCCCCCNc1nc(NCCc2ccc(S(N)(=O)=O)cc2)nc(Nc2ccc(F)cc2)n1` [Compound VII], on TNFα, the inhibition at 10 µM turned out to be 65.8%, the inhibition at 20 µM stood at 99.9%, the inhibition at 40 µM worked out at 118% and the inhibition at 5 µM is 30%. In addition, in assay [1] (setting [8]), the IC50 is 12.6 µM. In addition, in assay [1] (setting [9]), the concentration for half-maximal inhibition (IC50) worked out at 4 µM. In addition, the IC50 in assay [2] (setting [10]) was 17.7 µM. In addition, the 50% inhibitory concentration (IC50) in assay [2] (setting [11]) is 14.1 µM.

As for `COc1ccc2c(c1)c(CC(=O)O)c(C)n2C(=O)c1ccc(Cl)cc1` [indomethacin, reference compound], the “severity of arthritis (inflammatory index)” value in assay [3] was “significant reduction in the severity of arthritis”. Besides, the “PGE2 production induced by LPS” value in assay [4] (twelve hours after induction, FIG. 21B) is recorded as “significant inhibition”; in assay [4] (two hours after induction, FIG. 20B), “significant inhibition”. Also, the “TNFα production induced by LPS” value is “weak inhibition” in assay [4] (twelve hours post-LPS induction, FIG. 21A) and “increase the concentration of TNFα” in assay [4] (two hours after induction, FIG. 20A). In addition, in assay [4] (two hours after induction, FIG. 20C), the “LTB4 production induced by LPS” value is reported as “did not affect the production of LTB4”. In addition, in assay [4] (two hours after induction, FIG. 20D), the “MCP-1 production induced by LPS” value was “significant increase”.

`NCCCCCNc1nc(NCC(O)c2ccc(O)cc2)nc(Nc2ccc(F)cc2)n1` (stereo not shown) [Compound XI]: on TNFα, the inhibition at 10 µM turned out to be 14.6%, the inhibition at 20 µM worked out at 23.7%, the inhibition at 40 µM stood at 35% and the inhibition at 5 µM was determined as 9.9%. Moreover, the “inflammation (ear thickness) after DTH” value in assay [5] (IV 25 mg/kg, first challenge of oxazolone) is given as “significant reduction of the inflammation”.

`NCCCCCNc1nc(NCCc2ccc(C(N)=O)cc2)nc(Nc2cccc(F)c2)n1` [Compound VI]: at TNFα, the inhibition at 10 µM worked out at 54.8%, the inhibition at 20 µM was 74.1%, the inhibition at 40 µM came out at 89.5% and the inhibition at 5 µM stood at 28.2%.

For `NCCCCCNc1nc(NCCc2ccc(N)cc2)nc(Nc2ccc(F)cc2)n1` [Compound IV], on TNFα, the inhibition at 10 µM stood at 13.1%. Besides, the inhibition at 20 µM at TNFα came to 31.6%. On TNFα, the inhibition at 40 µM came to 47.2%. Besides, the inhibition at 5 µM on TNFα turned out to be 3.7%. In addition, the IC50 in assay [1] (setting [8]) stood at 33 µM; in assay [6] (24 hr culture, read-out: IC50 of 24-hour culture NHDF) it was 82.1 µM; in assay [6] (72 hr culture, read-out: IC50 of 72-hour culture NHDF), 42.5 µM; in assay [2] (setting [10]), 56.6 µM; in assay [2] (setting [11]), 51.9 µM; in assay [7] (24 hr culture, read-out: IC50 of 24-hour culture HUVEC) it was 51.3 µM. Moreover, in assay [7] (72 hr culture, read-out: IC50 of 72-hour culture HUVEC), the IC50 is above 100 µM. Besides, in assay [5] (oral 50 mg/kg, FIG. 15), the “inflammation (ear thickness) after DTH” value is “significant reduction of the inflammation”.

Regarding `NCCCCCNc1nc(Nc2cccc(F)c2)nc(-c2cccc(F)c2)n1` [XII], the IC50 stood at 21.7 µM in assay [1] (setting [9]) and 9 µM in assay [2] (setting [11]).

With `CN(C)S(=O)(=O)c1ccc(CCNc2nc(NCCCCCN)nc(Nc3ccc(F)cc3)n2)cc1` [Compound X], on TNFα, the inhibition at 10 µM was 44.4%, the inhibition at 20 µM stood at 79.9%, the inhibition at 40 µM stood at 53.9% and the inhibition at 5 µM amounted to 19.4%. Also, the “inflammation (ear thickness) after DTH” value in assay [5] (IV 5 mg/kg, first challenge of oxazolone) is reported as “significant reduction of the inflammation”.

For the molecule `NCCCCNc1nc(NCCc2ccc(S(N)(=O)=O)cc2)nc(Nc2cccc(F)c2)n1` [Compound IX], on TNFα, the inhibition at 10 µM is 29.8%, the inhibition at 20 µM was found to be 46.7%, the inhibition at 40 µM was 65.5% and the inhibition at 5 µM was 13.2%.

For `CN(C)S(=O)(=O)c1ccc(CCNc2nc(NCCCCCN)nc(Nc3cccc(F)c3)n2)cc1` [Compound III], the inhibition at 10 µM on TNFα came out at 52%. At TNFα, the inhibition at 20 µM came out at 89.7%. Besides, at TNFα, the inhibition at 5 µM is 20.4%. Also, the IC50 in assay [1] (setting [8]) turned out to be 13.6 µM; in assay [1] (setting [9]) it was 5.5 µM; in assay [2] (setting [10]), 30.1 µM; in assay [2] (setting [11]) it was 27.6 µM. Besides, the “inflammation (ear thickness) after DTH” value in assay [5] (oral 50 mg/kg, first challenge of oxazolone) is “significant reduction of the inflammation”; in assay [5] (oral 50 mg/kg, second challenge of oxazolone), “significant reduction of the inflammation”.

Consider `NCCCCCNc1nc(Nc2ccc(S(N)(=O)=O)cc2)nc(Nc2cccc(F)c2)n1` [Compound VIII], for which, on TNFα, the inhibition at 10 µM was 35.6%, the inhibition at 20 µM is 48.1%, the inhibition at 40 µM came to 55.6% and the inhibition at 5 µM is 17%. For the same molecule, the IC50 in assay [1] (setting [8]) is 10.9 µM. Also, the 50% inhibitory concentration (IC50) in assay [1] (setting [9]) stood at 2.9 µM. For the same molecule, the 50% inhibitory concentration (IC50) in assay [2] (setting [10]) was found to be 31 µM. The IC50 in assay [2] (setting [11]) was determined as 5.2 µM.
